Data published in US11497731B2, “β-lactamase inhibitor” (NATIONAL UNIVERSITY CORPORATION TOKAI NATIONAL HIGHER …, priority 2018, dated 2022).
Values after ≈ are worked out from the molar mass of the structure shown. Read-outs that look alike come from different tables or passages of the source.

What was measured:
[1] = tested on: bacteria into which a plasmid encoding IMP-1 was introduced (pBCSK (+)/E. coli DH5a); assay: Drug susceptibility test (MIC), IMP-1-producing strain; type: cell-based; settings: for Meropenem MIC IMP1-producing strain: MIC of meropenem with inhibitor 10 μg/mL; for MIC: Escherichia coli
[2] = tested on: bacteria into which a plasmid encoding NDM-1 was introduced (pBCSK (+)/E. coli DH5a); assay: Drug susceptibility test (MIC), NDM-1-producing strain; type: cell-based; settings: for Meropenem MIC NDM-1-producing strain: MIC of meropenem with inhibitor 10 μg/mL; for MIC: Escherichia coli
Description: (§1) Plates for drug susceptibility test measurement were prepared by using 96- or 384-well U-bottom plates, a Mueller-Hinton liquid medium, and antimicrobial drugs (ceftazidime (CAZ), imipenem (IPM), meropenem (MPM), doripenem (DPM), and biapenem (BPM)). A 1/2 antimicrobial drug dilution series was made up to well 11 of, for example, a 96-well U-bottom plate so that the leftmost well 1 of row A contained an antimicrobial drug at the maximum concentration, the antimicrobial drug concentration in well 2 to the right of well 1 was 1/2 of the maximum concentration, the antimicrobial drug concentration in well 3 to the right of well 2 was 1/4 of the maximum concentration, and so on. […] An antimicrobial drug dilution series was made in each of rows B and C in the same manner as in row A. Further, 10 μg/mL and 50 μg/mL of a test substance (compound A) were added to row B and row C, respectively (FIG. 1).
(§2) Bacteria into which a plasmid encoding a class B β-lactamase (metallo-β-lactamase (MBL): NDM-1, or VIM-2) was introduced (pBCSK (+)/E. coli DH5a) were used as test bacteria. The test bacteria were adjusted to 10^8 cfu/mL with a Mueller-Hinton medium. Further, the test bacteria were diluted 10-fold with a Mueller-Hinton medium (10^7 cfu/mL). 5 μl of the test bacteria was collected and inoculated into the plates for drug susceptibility test measurement. After overnight culture at 35° C., the growth of the test bacteria was visually checked. The concentration of the antimicrobial drug in a well containing the lowest concentration of the antimicrobial drug among the wells in which no growth of the test bacteria was confirmed was defined as the minimal inhibitory concentration value (FIG. 1).
(§3) The drug susceptibility test was performed in the same manner as in Test Example 1, except that compounds A to C and E to I were used as test substances.
(§4) The test was performed in the same manner as in Test Example 1, except that X2a, X2b, X2c, X2d, X3a, and X4 were used as test substances (inhibitors). The inhibitor concentration was 10 μg/mL.

[3] = tested on: bacteria into which a plasmid encoding VIM-2 was introduced (pBCSK (+)/E. coli DH5a); assay: Drug susceptibility test (MIC), VIM-2-producing strain; type: cell-based; settings: for Ceftazidime MIC VIM-2-producing strain: MIC of ceftazidime with inhibitor 10 μg/mL; for MIC: Escherichia coli
Description: as §1, §2, §3, §4

IMP-1 = IMP-1 (Serratia marcescens, UniProt P52699); assay: Inhibition constant (Ki) measurement test, IMP-1; type: biochemical
Sequence of IMP-1 (P52699 19-246, looked up, species assumed): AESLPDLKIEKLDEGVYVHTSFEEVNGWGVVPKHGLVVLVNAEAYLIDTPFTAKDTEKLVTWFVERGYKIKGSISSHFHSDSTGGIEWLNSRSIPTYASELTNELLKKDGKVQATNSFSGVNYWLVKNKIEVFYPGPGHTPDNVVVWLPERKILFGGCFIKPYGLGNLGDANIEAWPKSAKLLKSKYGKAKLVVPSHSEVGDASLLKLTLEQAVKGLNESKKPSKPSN
Description: (§5) The inhibition constant (Ki) measurement test was performed in the following manner. The inhibition constant (Ki) was measured using various metallo-β-lactamases (final concentration: 10 nM). The imipenem decomposition activity (Δabs/min) at each point under the conditions of absorbance: 298 nm and temperature: 30° C. was measured by varying the concentration of imipenem as a substrate and the concentrations of test substances (compounds A to E) as inhibitors. Each measured value was fitted to the Lineweaver-Burk plot equation to calculate Ki.
(§6) The test was performed in the same manner as in Test Example 6, except that X2a, X2b, X2c, X2d, X3a, and X4 were used as test substances (inhibitors).

NDM-1 = NDM-1 (Klebsiella pneumoniae, UniProt C7C422); assay: Inhibition constant (Ki) measurement test, NDM-1; type: biochemical
Sequence of NDM-1 (C7C422 29-270, looked up, species assumed): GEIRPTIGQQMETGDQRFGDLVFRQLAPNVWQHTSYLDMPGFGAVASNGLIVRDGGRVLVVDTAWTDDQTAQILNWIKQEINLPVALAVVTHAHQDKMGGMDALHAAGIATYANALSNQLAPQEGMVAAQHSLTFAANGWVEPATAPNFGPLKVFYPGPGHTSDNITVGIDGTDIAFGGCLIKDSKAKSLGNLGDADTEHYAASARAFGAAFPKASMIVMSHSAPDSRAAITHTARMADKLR
Description: as §5, §6

VIM-2 = VIM-2 (Escherichia coli, UniProt Q5U7L7); assay: Inhibition constant (Ki) measurement test, VIM-2; type: biochemical
Description: as §5, §6

[4] = tested on: β-lactamase-producing bacteria; assay: Drug susceptibility tests, summary statements over all strains; type: cell-based, E. coli; settings: addition of the compound
Description: as §1, §2

β-lactamase = assay: Inhibition constant (Ki) tests, summary statements over all enzymes; type: biochemical
Description: as §5, §6

[5] = tested on: Empty vector (no class B lactamase produced), pBCSK (+)/E. coli DH5a; assay: Drug susceptibility test (MIC), empty vector strain; type: cell-based; settings: Escherichia coli
[6] = Test Example 11, same manner as Test Example 6, read-out: Enzymatic Inhibition Effect Ki IMP-1
[7] = Test Example 11, same manner as Test Example 6, read-out: Enzymatic Inhibition Effect Ki NDM-1
[8] = Test Example 11, same manner as Test Example 6, read-out: Enzymatic Inhibition Effect Ki VIM-2
[9] = imipenem substrate, enzyme 10 nM, 30° C., Lineweaver-Burk, read-out: Inhibition constant Ki IMP-1
[10] = imipenem substrate, enzyme 10 nM, 30° C., Lineweaver-Burk, read-out: Inhibition constant Ki NDM-1
[11] = imipenem substrate, enzyme 10 nM, 30° C., Lineweaver-Burk, read-out: Inhibition constant Ki VIM-2
[12] = meropenem alone, no test substance added, Table 2

Row | SMILES | Meropenem MIC IMP1-producing strain [1] [µg/mL] | Meropenem MIC NDM-1-producing strain [2] [µg/mL] | Ceftazidime MIC VIM-2-producing strain [3] [µg/mL] | Ki (IMP-1; [6]) [nM] | Ki (NDM-1; [7]) [nM] | Ki (VIM-2; [8]) [nM] | effect on MICs of the antimicrobial drugs (statement on Tables 1, 2, 4) [4] | β-lactamase activity inhibition (statement on Tables 2, 5) (β-lactamase) | Ki (IMP-1; [9]) [nM] | Ki (NDM-1; [10]) [nM] | Ki (VIM-2; [11]) [nM] | other results
1 | CCc1c(C(=O)O)c(S(N)(=O)=O)c(CC)n1N [Compound X3a] | 0.031 | 0.5 | 4 | 21400 | 22100 | 1970 | decreases the MICs | inhibits β-lactamase activity |  |  |  | 
2 | Cc1c(C(=O)O)c(S(N)(=O)=O)c(C)n1-c1ccccc1 [Compound D] |  |  |  |  |  |  |  |  | 7510 | 10200 | 20800 | 
3 | CCc1c(C(=O)O)c(S(N)(=O)=O)c(C)n1C [Compound X2a] | 0.031 | 0.0625 | 1 | 1770 | 1830 | 23 | decreases the MICs | inhibits β-lactamase activity |  |  |  | 
4 | NS(=O)(=O)c1c(C2CCCC2)oc(C2CCCC2)c1C(=O)O [Compound H] |  |  |  |  |  |  |  |  | 1270 | 180 | 760 | 
5 | CCc1c(C(=O)O)c(S(N)(=O)=O)c(-c2ccccc2)n1C [Compound X2c] | 0.031 | 0.5 | 1 | 1240 | 1500 | 19 | decreases the MICs | inhibits β-lactamase activity |  |  |  | 
6 | C[C@@H](O)[C@H]1C(=O)N2C(C(=O)O)=C(S[C@@H]3CN[C@H](C(=O)N(C)C)C3)[C@H](C)[C@H]12 [MPM, meropenem, reference compound] |  |  |  |  |  |  |  |  |  |  |  | MIC ([1]; read-out: MIC MPM): 0.5 µg/mL (≈ 1.3 µM); MIC ([1]; read-out: Meropenem MIC IMP1-producing strain, No inhibitor): 2 µg/mL (≈ 5.22 µM); MIC IMP-1 meropenem, None [1, 12]: 1 mg I^−1; MIC ([2]; read-out: Meropenem MIC NDM-1-producing strain, No inhibitor): 4 µg/mL (≈ 10.4 µM); MIC NDM-1 meropenem, None [2, 12]: 64 mg I^−1; MIC ([3]; read-out: MIC MPM): 0.063 µg/mL (≈ 0.164 µM); MIC ([5]; read-out: MIC MPM): 0.016 µg/mL (≈ 0.0417 µM)
7 | CCc1c(S(N)(=O)=O)c(C(=O)O)c(C)n1C [Compound X2b] | 0.031 | 0.0625 | 1 | 980 | 1730 | 100 | decreases the MICs | inhibits β-lactamase activity |  |  |  | 
8 | CCCc1oc(CCC)c(S(N)(=O)=O)c1C(=O)O [Compound G] |  |  |  |  |  |  |  |  | 380 | 290 | 460 | 
9 | Cc1c(C(=O)O)c(S(N)(=O)=O)c(C)n1C [Compound E] |  |  |  |  |  |  |  |  | 1230 | 9080 | 420 | 
10 | NS(=O)(=O)c1sc(Cl)cc1C(=O)O [C] |  |  |  |  |  |  |  |  | 19100 | 19300 | 2290 | 
11 | CC(C)(O/N=C(\C(=O)N[C@@H]1C(=O)N2C(C(=O)[O-])=C(C[n+]3ccccc3)CS[C@H]12)c1csc(N)n1)C(=O)O [CAZ, ceftazidime, reference compound] |  |  |  |  |  |  |  |  |  |  |  | MIC ([1]; read-out: MIC CAZ): 256 µg/mL (≈ 468 µM); MIC ([2]; read-out: MIC CAZ): > 1020 µg/mL; MIC ([3]; read-out: Ceftazidime MIC VIM-2-producing strain, No inhibitor): 16 µg/mL (≈ 29.3 µM); MIC ([3]; read-out: MIC CAZ): 4 µg/mL (≈ 7.32 µM); MIC VIM-2 ceftazidime, None ([3]; ceftazidime alone, no test substance added, Table 2): 16 mg I^−1; MIC ([5]; read-out: MIC CAZ): 0.25 µg/mL (≈ 0.457 µM)
12 | CCc1oc(CC)c(S(N)(=O)=O)c1C(=O)O [Compound F] |  |  |  |  |  |  |  |  | 300 | 920 | 1010 | 
13 | NS(=O)(=O)c1sccc1C(=O)O [B] |  |  |  |  |  |  |  |  | 34100 | 7680 | 15500 | 
14 | CCc1c(C(=O)O)c(S(N)(=O)=O)c(C(C)C)n1C [Compound X4] | 0.031 | 0.5 | 1 | 900 | 4300 | 17 | decreases the MICs | inhibits β-lactamase activity |  |  |  | 
